Where two headings read alike, the source gives them in different places.
Biological target: T1, human α7 nicotinic acetylcholine receptor (HEK cell line stably expressing human RIC-3 and human α7) (Homo sapiens, UniProt P36544)
T1 construct: host or cells: HEK cell line (PrecisION hnAChR α7/RIC-3)
Experiment: Automated patch-clamp electrophysiology functional assay (Assay A), IonFlux HT, whole-cell population patch
Type: cell-based

[1] = HEK cells expressing human α7/RIC-3, test compound with or without 40 μM acetylcholine, holding potential −60 mV, room temperature, read-out: α7 nAChR Potency
[2] = automated patch-clamp electrophysiology functional assay (Assay A), read-out: α7 nAChR EC50

T1 sequence (P36544 23-502): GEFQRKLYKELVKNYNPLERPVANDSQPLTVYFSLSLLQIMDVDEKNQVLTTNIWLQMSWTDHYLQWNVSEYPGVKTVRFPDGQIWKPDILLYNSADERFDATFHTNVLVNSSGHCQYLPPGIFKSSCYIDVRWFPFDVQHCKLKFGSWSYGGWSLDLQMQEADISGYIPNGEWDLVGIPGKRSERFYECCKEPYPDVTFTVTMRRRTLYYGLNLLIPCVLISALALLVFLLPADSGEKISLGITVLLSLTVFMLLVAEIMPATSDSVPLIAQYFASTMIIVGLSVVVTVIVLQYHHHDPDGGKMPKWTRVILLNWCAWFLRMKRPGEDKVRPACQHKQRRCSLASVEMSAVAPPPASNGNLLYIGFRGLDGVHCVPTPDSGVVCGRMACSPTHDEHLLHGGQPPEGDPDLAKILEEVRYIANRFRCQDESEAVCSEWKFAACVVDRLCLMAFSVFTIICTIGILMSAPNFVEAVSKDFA

Row | EC50 [1] | EC50 [2] | Compound
1 | 0.5 to 5 µM | 4.5 µM | NS(=O)(=O)N1CCC2(CC1)[C@@H](c1nc(C3CCCCC3)no1)C2(F)F [Example H3]
2 | 0.5 to 5 µM | 1.2 µM | NS(=O)(=O)N1CCC2(CC1)[C@@H](c1nc(-c3cccc(F)c3)no1)C2(F)F [Example H4]
3 | 0.5 to 5 µM |  | Cc1ccccc1-c1noc([C@H]2C(F)(F)C23CCN(S(N)(=O)=O)CC3)n1 [Example H5]
4 | 0.5 to 5 µM | 3.4 µM | Cc1ccccc1-c1nnc([C@H]2C(F)(F)C23CCN(S(N)(=O)=O)CC3)s1 [Example H6]
5 | 0.5 to 5 µM | 1.4 µM | NS(=O)(=O)N1CCC2(C(F)C1)C(c1nc(-c3ccc(F)cc3C(F)(F)F)no1)C2(F)F (centres unmarked) [Example I15]
6 | 0.5 to 5 µM | 2.1 µM | NS(=O)(=O)N1CCC2(C(F)C1)C(c1nc(-c3ccc(F)cc3C(F)(F)F)no1)C2(F)F (centres unmarked) [Example I16]
7 | 0.5 to 5 µM |  | NS(=O)(=O)N1CCC2(C(F)C1)C(c1nc(-c3ccc(F)cc3C(F)(F)F)no1)C2(F)F (centres unmarked) [Example I17]
8 | 0.1 to 0.5 µM | 0.32 µM | NS(=O)(=O)N1CCC2(C(F)C1)C(c1nc(-c3ccc(F)cc3C(F)(F)F)no1)C2(F)F (centres unmarked) [Example I18]

— US11332463B2, “Spiropiperidine allosteric modulators of nicotinic acetylcholine receptors” (Merck Sharp & Dohme Corp., priority 2018, dated 2022)
